In patent publication US20240336630A1, “MAP4K1 INHIBITORS” (Blueprint Medicines Corporation, priority 2021, published 2024):
pEC50, pIC50: −log10 of the molar value.

Key:
MAP4K1 (HPK1) = molecular target: T1, MAP4K1 (HPK1) (Homo sapiens, UniProt Q92918); assay: Inhibition of MAP4K1 biochemical enzymatic activity (EZReader 2 electrophoretic mobility shift); details: HPK1 (Invitrogen), S6K2tide 1.5 μM, 120 min; ATP 26 μM or 1000 μM, not stated which for Table 3
T1 construct: purchased Invitrogen
From the text: MAP4K1 (HPK1) and relevant off-target enzymatic activity was monitored using the Perkin Elmer electrophoretic mobility shift technology platform—the EZReader 2. […] Within the linear, steady-state phase of the kinase enzymatic reaction, the mixed pool of phosphorylated (product) and non-phosphorylated (substrate) peptides was passed through the microfluidic system of the PerkinElmer EZ Reader 2, under an applied electric potential difference. The presence of the phosphate group on the product peptide provided a difference in mass and charge between that of the substrate peptide, resulting in a separation of the substrate and product pools in the sample (Perrin et al. 2010). As the product and substrate peptide mixture passes the lasers within the instrument, these pools are detected (λex=488 nm, λem=568 nm) and resolved as separate peaks. The ratio between these peaks reflects the activity of the compound at that concentration, in that well, under those conditions.
Inhibitors were dissolved in 100% DMSO at a stock concentration of 10 mM. A 100×, 10-point, 4-fold serial dilution of each inhibitor was created in 100% DMSO either manually or on a Hamilton STAR liquid handler, starting at a relevant concentration, usually 1 mM. A volume of 0.130 μL of each concentration was transferred to the relevant wells of a 384-well plate (Greiner 781 201) in duplicate using a TTPLabtech Mosquito nano-litre dispenser. Using a Multidrop Combi, the remaining constituents of the kinase reaction were added to the 130 nL of dosed compound as follows (see table below for final reaction details):
Enzyme activity assays at the ^APPKM for ATP or 1 mM ATP: In each well of a 384-well plate, 0.1-15 nM of untreated enzyme was incubated in a total of 13 μL of buffer (100 mM HEPES pH 7.5, 0.015% Brij 35, 10 mM MgCl2, 1 mM DTT) with 1.5 μM fluorescent peptide and 20-1000 μM ATP, at 25° C., for 60-180 minutes in the presence or absence of a dosed concentration series of compound (1% DMSO final concentration). The kinase reactions were stopped by the addition of 70 μl of Stop buffer (100 mM HEPES pH 7.5, 0.015% Brij 35, 35 mM EDTA and 0.2% of Coating Reagent 3 (Caliper Lifesciences)). The plates were read on a Caliper EZReader 2 as described above.

[1] = tested on: Primary T Cell (expanded CD3+ T cells); assay: T cell enhancement of cytokines: IL2 measurement (HTRF) in expanded CD3+ T cells stimulated with anti-CD3/anti-CD28; type: cell-based; details: Homo sapiens, plate-bound anti-CD3 and soluble anti-CD28, 24 h, read-out: IL-2 Primary T Cell EC50
Procedure: T cells are isolated from whole blood of healthy donors by immunomagnetic negative selection following manufacture's protocol (StemCell Technologies, human T cell isolation kit). Purity of isolated cells is assessed by flow cytometry and yields 95-98% CD3^+ T cells. For expansion of T cells, 1×10^6 cells/well are plated in serum free cell expansion media (ThermoFisher) containing 30U of recombinant human IL2 (R&D) and stimulated with 25 ul of CD3/CD28 beads (Invitrogen) in 24 well plates for 3-4 days. T cells are then expanded in 175 cm flasks and maintained at a cell density of 1 to 2.5×10^6 cells/ml days by addition of ⅔ of fresh media every 2-3 days. After 10-14 days, cells are frozen in BamBanker freezing media (Thermo) and stored in liquid nitrogen.
For IL2 measurement, expanded CD3^+ T cells are dispensed at 100K cells/well (cultured in X-VIVO 10 Serum-free media) and are stimulated with plate-bound anti-CD3 and soluble anti-CD28 in the presence of vehicle or compound of the disclosure at various concentrations for 24 h. As outlined in the manufacturer's protocol (Cisbio), 16 μL of conditioned media is transferred to a white 384-well low volume plate. Following a 24 h incubation with the anti-IL2 antibodies, the homogenous time resolved fluorescence (HTRF) is measured.

T1 sequence (Q92918 whole entry): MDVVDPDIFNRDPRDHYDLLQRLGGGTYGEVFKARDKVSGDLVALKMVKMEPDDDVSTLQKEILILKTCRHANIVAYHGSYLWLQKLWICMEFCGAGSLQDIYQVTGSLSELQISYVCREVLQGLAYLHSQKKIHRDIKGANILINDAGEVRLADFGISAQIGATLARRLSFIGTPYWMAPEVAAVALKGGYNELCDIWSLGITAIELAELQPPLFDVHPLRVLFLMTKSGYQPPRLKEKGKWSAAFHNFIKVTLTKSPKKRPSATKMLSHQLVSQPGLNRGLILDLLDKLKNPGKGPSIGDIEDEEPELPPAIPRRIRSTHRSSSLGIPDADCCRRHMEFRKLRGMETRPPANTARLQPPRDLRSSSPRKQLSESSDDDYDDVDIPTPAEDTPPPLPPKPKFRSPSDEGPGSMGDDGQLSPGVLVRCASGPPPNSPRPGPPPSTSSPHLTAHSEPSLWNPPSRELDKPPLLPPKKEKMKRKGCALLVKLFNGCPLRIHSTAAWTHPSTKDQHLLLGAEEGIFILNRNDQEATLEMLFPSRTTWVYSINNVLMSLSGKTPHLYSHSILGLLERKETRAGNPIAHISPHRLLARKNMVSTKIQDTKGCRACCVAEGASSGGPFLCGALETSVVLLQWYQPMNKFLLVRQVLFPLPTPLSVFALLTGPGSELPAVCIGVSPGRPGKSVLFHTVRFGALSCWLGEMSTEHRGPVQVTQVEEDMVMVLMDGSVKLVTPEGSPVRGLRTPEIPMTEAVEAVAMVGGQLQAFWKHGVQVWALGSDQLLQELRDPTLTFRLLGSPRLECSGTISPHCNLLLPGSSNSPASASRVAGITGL

Row | pIC50 (MAP4K1 (HPK1)) | pEC50 [1] | Structure (SMILES)
1 | 8.77 | 7.38 | CC[C@](C)(O)c1cnc(OC2CC2)c2cnc(Nc3ccc4c(n3)C3(CC3)[C@@H](C)OC4=O)cc12 (single isomer, unassigned) [Compound 27]
2 | 9.38 | 7.33 | CC[C@@](C)(O)c1cnc(OC2CC2)c2cnc(Nc3ccc4c(n3)[C@@H](C)C(C)(C)OC4=O)cc12 (single isomer, unassigned) [Compound 31]
3 | 8.68 | 6.77 | CC[C@](C)(O)c1cnc(OC2CC2)c2cnc(Nc3ccc4c(n3)C3(CC3)C(C)(C)OC4=O)cc12 (single isomer, unassigned) [Compound 40]
4 | 9.41 | 7.64 | CC[C@@](C)(O)c1cnc(O[C@H]2C[C@@H](S(C)(=O)=O)C2)c2cnc(Nc3ccc4c(n3)[C@@H](C)[C@H](C)OC4=O)cc12 (single isomer, unassigned) [Compound 61]
5 | 8.60 | 6.88 | CC[C@](C)(O)c1cnc(OC2CC2)c2cnc(Nc3ccc4c(n3)C(C)(C)[C@@H](C)OC4=O)cc12 [Compound 34]
6 | 9.54 | 7.19 | C[C@@H]1c2nc(Nc3cc4c(C(C)(C)O)cnc(O[C@H]5C[C@@H](S(C)(=O)=O)C5)c4cn3)ccc2C(=O)OC1(C)C [Compound 60]
